In ChEMBL document CHEMBL3272338, “Bis-basic-substituted polycyclic aromatic compounds. A new class of antiviral agents. 8. Bis-basic derivatives of carbazole, dibenzofuran, and dibenzothiophene” (1977) one finds Ratio data, which are given here for 33 compounds.

Holding throughout (type): functional
The subject of assay [1] is Encephalomyocarditis virus. The assay is described as follows: Antiviral activity against Encephalomyocarditis virus infected in CF-1 mouse assessed as host survival time ratio at 50 mg/kg, sc administered 28, 22, 2 hrs before and 2 hrs after virus inoculation. The note with it: route subcutaneous.
Assay [2] concerns Encephalomyocarditis virus. The assay is described as follows: Antiviral activity against Encephalomyocarditis virus infected in CF-1 mouse assessed as host survival time ratio at 10 mg/kg, sc administered 28, 22, 2 hrs before and 2 hrs after virus inoculation. The note with it: route subcutaneous.
Assay [3] concerns Encephalomyocarditis virus. The assay is described as follows: Antiviral activity against Encephalomyocarditis virus infected in CF-1 mouse assessed as host survival time ratio at 250 mg/kg, sc administered 28, 22, 2 hrs before and 2 hrs after virus inoculation. As to conditions: route subcutaneous.
In assay [4] the test system is Encephalomyocarditis virus. The assay is described as follows: Antiviral activity against Encephalomyocarditis virus infected in CF-1 mouse assessed as host survival time ratio at 250 mg/kg, po administered via gavage as single dose at 22 to 28 hrs before virus inoculation.
Assay [5] deals with Encephalomyocarditis virus. The assay is described as follows: Antiviral activity against Encephalomyocarditis virus infected in CF-1 mouse assessed as host survival time ratio at 50 mg/kg, po administered via gavage at 28, 22, 2 hrs before and 2 hrs after virus inoculation.

Turning to `O=C(CCCN1CCCCC1)c1ccc2c(c1)sc1ccc(C(=O)CCCN3CCCCC3)cc12`, the Ratio was 1.71 in assay [1]; 1.21 in assay [2]; 2.08 in assay [3]; 1.23 in assay [4]; 1.1 in assay [5].
As for `CCn1c2ccc(OCCCN(C)C)cc2c2cc(OCCCN(C)C)ccc21.Cl`, the Ratio in assay [1] is given as 1.1; in assay [2], 0.92; in assay [3], 0.52; in assay [4], 0.88; in assay [5] it was 0.9.
Consider `CCN(CC)CCOc1ccc2sc3ccc(OCCN(CC)CC)cc3c2c1.O=C(O)/C=C/C(=O)O`, for which the Ratio is 1.12 in assay [1]; 0.96 in assay [2]; 1.32 in assay [3]; 0.86 in assay [4]; 0.88 in assay [5].
As to `Cl.O=C(CN1CCCCC1)c1ccc2oc3ccc(C(=O)CN4CCCCC4)cc3c2c1`, the Ratio in assay [1] turned out to be 1.12; in assay [2] it was 1.11; in assay [3], 2.41; in assay [4], 1.41; in assay [5], 0.87.
Taken in the same sequence, the figures for `CCN(CC)CC(=O)c1ccc2oc3ccc(C(=O)CN(CC)CC)cc3c2c1.Cl` were 1.35, 0.96, 2.17, 1.65 and 0.96.
`CCn1c2ccc(C(=O)CCCN(C)C)cc2c2cc(C(=O)CCCN(C)C)ccc21.O=C(O)/C=C/C(=O)O`: the Ratio in assay [1] was found to be 1.63; in assay [2], 1.42; in assay [3], 1.44; in assay [4], 1.06; in assay [5], 0.94.
Regarding `CCCCN(CCCC)CCCOC(=O)c1ccc2sc3ccc(C(=O)OCCCN(CCCC)CCCC)cc3c2c1.Cl`, the Ratio came to 1.48 in assay [1]; 1.29 in assay [2]; 2.43 in assay [3]; 0.93 in assay [4]; 0.93 in assay [5].
With `CCN(CC)CCOc1ccc2oc3ccc(OCCN(CC)CC)cc3c2c1.Cl`, the Ratio in assay [1] is given as 1.31; in assay [2] it was 1.21; in assay [3], 0.91; in assay [4], 1.02; in assay [5], 1.17.
`CC1CCN(CCCC(=O)c2ccc3sc4ccc(C(=O)CCCN5CCC(C)CC5)cc4c3c2)CC1`: the Ratio in assay [1] was 1.84; in assay [2], 1.22; in assay [3], 1.69; in assay [4], 1.1; in assay [5] it was 1.06.
Regarding `CCN(CC)CCOc1ccc2c(c1)c1cc(OCCN(CC)CC)ccc1n2CC.Cl`, the Ratio in assay [1] amounted to 1.13; in assay [2], 1.05; in assay [3] it was 0.85; in assay [4] it was 0.92; in assay [5] it was 0.87.
Consider `CC(CN(C)C)Oc1ccc2oc3ccc(OC(C)CN(C)C)cc3c2c1.O=C(O)CC(O)(CC(=O)O)C(=O)O` (stereo not given), for which the Ratio was determined as 1.08 in assay [1]; 0.94 in assay [2]; 0.9 in assay [3]; 0.84 in assay [4]; 0.84 in assay [5].
Consider `CC1CCN(CCCC(=O)c2ccc3oc4ccc(C(=O)CCCN5CCC(C)CC5)cc4c3c2)CC1`, for which the Ratio was determined as 2.13 in assay [1]; 1.23 in assay [2]; 2.04 in assay [3]; 1.19 in assay [4]; 1.11 in assay [5].
As to `CC(COc1ccc2oc3ccc(OCC(C)CN(C)C)cc3c2c1)CN(C)C.Cl` (stereo not given), the Ratio is 1.14 in assay [1]; 1.2 in assay [2]; 0.57 in assay [3]; 0.92 in assay [4]; 0.9 in assay [5].
For `CC1CCCN(COC(=O)c2ccc3oc4ccc(C(=O)OCN5CCCC(C)C5)cc4c3c2)C1.Cl` (stereo not given), the Ratio in assay [1] is 1.07; in assay [2] it was 1.07; in assay [3], 1.05; in assay [4], 1; in assay [5], 1.03.
For the compound `Cl.O=C(OCCCN1CCCCC1)c1ccc2oc3ccc(C(=O)OCCCN4CCCCC4)cc3c2c1`, the Ratio is reported as 1.22 in assay [1]; 1.11 in assay [2]; 0.91 in assay [3]; 1.02 in assay [4]; 0.96 in assay [5].
Take `CC(COc1ccc2sc3ccc(OCC(C)CN(C)C)cc3c2c1)CN(C)C.Cl` (stereo not given): the Ratio is 1.08 in assay [1]; 0.96 in assay [2]; 0.84 in assay [3]; 0.94 in assay [4]; 1.04 in assay [5].
For `Cl.O=C(CCCN1CCOCC1)c1ccc2c(c1)sc1ccc(C(=O)CCCN3CCOCC3)cc12`, the Ratio in assay [1] amounted to 1.33; in assay [2] it was 1.13; in assay [3], 1.98; in assay [4], 0.94; in assay [5] it was 0.9.
`CCN(CC)CCCOC(=O)c1ccc2[nH]c3ccc(C(=O)OCCCN(CC)CC)cc3c2c1.Cl`: the Ratio in assay [1] is on record as 1.69; in assay [2], 1.04; in assay [3], 1.47; in assay [4] it was 1.17; in assay [5], 1.1.
As to `CCn1c2ccc(OCCN3CCCCC3)cc2c2cc(OCCN3CCCCC3)ccc21.Cl`, the Ratio in assay [1] was 1.32; in assay [2], 1.16; in assay [3] it was 1.25; in assay [4] it was 1.09; in assay [5], 1.09.
As for `Cl.c1cc2sc3ccc(OCCCN4CCCCC4)cc3c2cc1OCCCN1CCCCC1`, the Ratio in assay [1] came out at 1.94; in assay [2], 1.34; in assay [3], 0.77; in assay [4], 1.06; in assay [5], 0.98.
The corresponding values for `CN(C)CCCOC(=O)c1ccc2oc3ccc(C(=O)OCCCN(C)C)cc3c2c1.Cl` are 1.26, 1.19, 1.36, 1.07 and 1.07.
For `CCCCN(CCCC)CCCOc1ccc2sc3ccc(OCCCN(CCCC)CCCC)cc3c2c1.Cl`, the Ratio in assay [1] worked out at 1.14; in assay [2], 0.88; in assay [3], 0.96; in assay [4], 0.88; in assay [5], 0.9.
For the compound `Cl.c1cc2oc3ccc(OCCN4CCCC4)cc3c2cc1OCCN1CCCC1`, the Ratio in assay [1] is listed as 1.04; in assay [2], 1.08; in assay [3], 0.88; in assay [4] it was 1; in assay [5] it was 0.98.
The corresponding values for `CC(C)N(CCOc1ccc2oc3ccc(OCCN(C(C)C)C(C)C)cc3c2c1)C(C)C` are 1.24, 0.88, 1.14, 0.88 and 0.96.
Regarding `CN(C)CCCC(=O)c1ccc2sc3ccc(C(=O)CCCN(C)C)cc3c2c1.Cl`, the Ratio worked out at 1.66 in assay [1]; 1.09 in assay [2]; 1.09 in assay [3]; 0.95 in assay [4]; 1 in assay [5].
As to `CN(C)CCCOc1ccc2oc3ccc(OCCCN(C)C)cc3c2c1.Cl`, the Ratio in assay [1] came to 1.24; in assay [2], 0.92; in assay [3], 0.66; in assay [4], 0.88; in assay [5] it was 0.92.
`CCn1c2ccc(C(=O)CCCN3CCCCC3)cc2c2cc(C(=O)CCCN3CCCCC3)ccc21.Cl`: the Ratio amounted to 1.58 in assay [1]; 1.68 in assay [2]; 0.56 in assay [3]; 1.2 in assay [4]; 1.09 in assay [5].
For the compound `CCn1c2ccc(OCCN3CCOCC3)cc2c2cc(OCCN3CCOCC3)ccc21`, the Ratio in assay [1] came to 1.08; in assay [2], 0.92; in assay [3], 1.02; in assay [4], 0.88; in assay [5], 0.86.
On to `CC(C)N(CCOc1ccc2sc3ccc(OCCN(C(C)C)C(C)C)cc3c2c1)C(C)C.Cl`, for which the Ratio in assay [1] was found to be 1.3; in assay [2], 1.24; in assay [3], 1.2; in assay [4] it was 1; in assay [5], 1.18.
As for `O=C(CCCN1CCOCC1)c1ccc2oc3ccc(C(=O)CCCN4CCOCC4)cc3c2c1`, the Ratio was determined as 1.39 in assay [1]; 1 in assay [2]; 1.96 in assay [3]; 1.08 in assay [4]; 1.08 in assay [5].
Turning to `O=C(CCCN1CCCCC1)c1ccc2[nH]c3ccc(C(=O)CCCN4CCCCC4)cc3c2c1`, the Ratio was 0.96 in assay [1]; 1.22 in assay [2]; 1 in assay [3]; 0.88 in assay [4]; 0.86 in assay [5].
As to `Cl.c1cc2sc3ccc(OCCN4CCCCC4)cc3c2cc1OCCN1CCCCC1`, the Ratio in assay [1] is 1.57; in assay [2], 1.09; in assay [3] it was 1.3; in assay [4] it was 1.02; in assay [5], 0.98.
For the compound `O=C(CCCN1CCCCC1)c1ccc2sc3ccc(C(=O)CCCN4CCCCC4)cc3c2c1`, the Ratio turned out to be 1.9 in assay [1]; 1.1 in assay [2]; 0.61 in assay [3]; 1.22 in assay [4]; 1.16 in assay [5].
